Measurements published in US20250188078A1, “SMALL MOLECULE INHIBITORS OF THE CRL4 UBIQUITIN LIGASE” (Cornell University, priority 2022, published 2025).
Several values for one entry are separate records, joined by “and”; a condition that tells them apart may be missing. Identical values can stand only once. Like-named read-outs stand apart in the source and are kept apart here.

Key:
[1] = tested on: CUL4A^high MDA-MB-468 breast cancer cells; assay: Cell killing in CUL4-high MDA-MB-468 cells (CellTiter Glo); type: cell-based; details: Homo sapiens, 8 days treatment
Method in brief: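 Cells seeded, treated after 24 h with DMSO or compound (0 to 20 μM). Medium and compound replaced every 48 h over 8 days. Viability measured by CellTiter-Glo luminescence; EC50 (50% killing) from log(inhibitor) vs response nonlinear fit.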

[2] = Dynamic light scattering (DLS) solubility assay; type: physicochemical; details: normalized intensity ratio of 25 μM compound vs DMSO, in PBS
Method in brief: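 Compounds diluted from DMSO into PBS at final concentrations of 200 μM to 0.78 μM, in triplicate, and aggregation measured by light scattering intensity. A ratio above 2 scores insoluble (−), below 2 soluble (+), and around 2 (+/−).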

[3] = tested on: MCF7 breast cancer cells; assay: Cell killing in MCF7 cells (CellTiter Glo); type: cell-based; details: Homo sapiens, MCF7, 192 h; Table 3, 0 to 20 μM compound, 8 days treatment
Description: CUL4A^high MDA-MB-468, CUL4^low (T47D), and MCF7 breast cancer cells were seeded in 96 well plates separately. Cells were treated with DMSO, or from 0 to 20 μM compound respectively. Replace with fresh medium and compounds every 48 hours. After 8 days treatment, cell viability was examined by CellTiter Glo kit (Promega #7570). First, transfer the appropriate volume (10 ml for Cat. #G7570) of CellTiter-Glo® Buffer into the amber bottle containing CellTiter-Glo® Substrate to reconstitute the lyophilized enzyme/substrate mixture. This forms the CellTiter-Glo® Reagent. Second, add CellTiter-Glo® Reagent in an equal volume (100 μl per well for 96-well plates) to all wells. Mix contents for 2 minutes on an orbital shaker to induce cell lysis. Incubate at room temperature for 15 minutes to stabilize luminescent signal. Then record luminescence. EC50 concentration was calculated by Prism 8 XY analysis nonlinear regression (curve fit-Log(inhibitor) vs response).

[4] = tested on: CUL4A^high MDA-MB-468 and CUL4^low (T47D) cells; assay: Selective killing of CUL4A^high tumors (MDA-MB-468 vs T47D, Cell Titer Glo); type: cell-based; details: FIG. 10, 8 days treatment
Description: CUL4A^high MDA-MB-468 breast cancer cells and CUL4^low (T47D) cells were seeded in 96 well plates. After 24 hours, cells were treated with DMSO or compound PA99. After 8 days treatment, cell viability was examined by using CellTiter Glo kit (Promega #7570) following the manufacturer's guidelines. EC50 concentration was calculated by Prism 8 XY analysis nonlinear regression (curve fit-Log(inhibitor) vs response). Lower EC50 indicates high cell killing potential in CUL4^high MDA-MB-468 cells.

[5] = Pharmacokinetic study: compound concentration in MDA-MB-468 xenograft tumor tissue; type: in vivo, mouse; details: for Tissue concentration: individual tumors
Description: Female athymic Nu/J nude mice, 6 weeks old were purchased from the Jackson Laboratory. Mice were housed in laminar air-flow cabinet under specific pathogen-free conditions. 5×10^6 MDA-MB-468 cells in 100 μl diluted BD Matrigel™ Basement Membrane Matrix (BD Bioscience, Matrix:PBS is 1:1) were injected subcutaneously in each flank of mouse. We detected tumors once every four days by fine calipers measurement. When tumor size reached 100 mm^3, mice were randomly grouped and treated with DMSO or 50 mg/kg PA99 compound. The stock solution of compound was 10 mg/ml, which formulated with 10% DMSO, 10% Tween-80 and 80% H2O. PA99 was injected into mouse by intraperitoneal injection ([…]) three times per week. Mouse weights and tumor volumes were measured twice/week. For the pharmacokinetic study, samples were collected after compound injection (30 mins, 1 h, 3 h, 6 h). Four tumor samples were collected at each time point for mass spectrometry analysis to determine the compound concentrations in tumor tissues.

[6] = tested on: CUL4A^high xenograft and PDX tumors; assay: CUL4A^high xenograft and PDX tumor growth; type: in vivo, mouse; details: 50 mg/kg intraperitoneal; breast cancer xenograft and colorectal cancer PDX models, FIGS. 8A-8C
Description: Measurements were performed according to the following procedure. Mouse body weights were monitored using a scale. Tumors were assessed and volumes measured with fine calipers twice a week. The tumor volumes were calculated with the formula: Volume=(Length×Width^2)/2. Compound PA99 was administered via intraperitoneal doses in an amount of 50 mg/kg every X days, where X is the number of days shown in FIGS. 8A-8C.

[7] = 192 h, MDA-MB-468 cells, read-out: EC50 CUL4-High Cells (cell killing)

Compound | EC50 [1, 7] | Solubility (DLS Assay) [2] | EC50 [3] | EC50 ([1]; MDA-MB-468, 192 h, Table 3, 0 to 20 μM compound, read-out: EC50 OF cell killing, MDA-MB-468) | Killing of CUL4A^high tumors [4] | Tissue concentration ([5]; 30 min after 50 mg/kg intraperitoneal injection) | Tissue concentration ([5]; 1 hr after 50 mg/kg intraperitoneal injection) | Tissue concentration ([5]; 3 hr after 50 mg/kg intraperitoneal injection) | Tissue concentration ([5]; 6 hr after 50 mg/kg intraperitoneal injection) | concentration at 30 min ([5]; female, athymic Nu/J nude, mouse, MDA-MB-468 xenograft tumor, intraperitoneal, 50 mg/kg, 30 min, average of four tumors) | concentration at 1 h ([5]; female, athymic Nu/J nude, mouse, MDA-MB-468 xenograft tumor, intraperitoneal, 50 mg/kg, 1 hr, average of four tumors) | concentration at 3 h ([5]; female, athymic Nu/J nude, mouse, MDA-MB-468 xenograft tumor, intraperitoneal, 50 mg/kg, 3 hr, average of four tumors) | concentration at 6 h ([5]; female, athymic Nu/J nude, mouse, MDA-MB-468 xenograft tumor, intraperitoneal, 50 mg/kg, 6 hr, average of four tumors) | Tumor growth [6]
CN(c1ccc(-c2nc(C(=O)O)cc3c2[nH]c2ccc(F)cc23)cc1)S(=O)(=O)c1ccccc1 [PA93] | 11.1 µM | -(insoluble) |  |  |  |  |  |  |  |  |  |  |  | 
CN(c1ccc(-c2nc(C(=O)O)cc3c2[nH]c2cccc(F)c23)cc1)S(=O)(=O)c1ccccc1 [PA99, 5-fluoro-1-(4-(N-methylphenylsulfonamido)phenyl)-9H-pyrido[3,4-b]indole-3-carboxylic acid] | 1.18 µM |  | 19.5 µM | 1.18 µM | selective killing | 3910 ng/mL and 8.2 μM and 666 ng/mL and 1.4 μM (2×) and 670 ng/mL and 1010 ng/mL and 2.1 μM | 5780 ng/mL and 12.2 μM and 1790 ng/mL and 3.8 μM and 1230 ng/mL and 2.6 μM and 870 ng/mL and 1.8 μM | 1400 ng/mL and 2.9 μM and 1340 ng/mL and 2.8 μM and 392 ng/mL and 0.8 μM and 290 ng/mL and 0.6 μM | 419 ng/mL and 0.88 μM and 342 ng/mL and 0.72 μM and 1440 ng/mL and 3.0 μM and 913 ng/mL and 1.9 μM | 1560 ng/mL and 3.3 µM | 2420 ng/mL and 5.1 µM | 856 ng/mL and 1.8 µM | 779 ng/mL and 1.6 µM | suppression
